Test system: Desulfovibrio spp.
Assay: In vitro fermentation of fibers with canine fecal inoculum, FISH enumeration
Format: cell-based
Conditions: 39° C.; for Numbers of Desulfovibrio spp., LOG10 CFU AT 8 HOUR: after 8 hour incubation
Protocol: Fermentation vessels containing anaerobic phosphate buffered medium were prepared and 1 ml canine fecal inoculum (10% w/v fecal sample to buffer) added. The composition of the media was as described in Sunvold G D, Hussein H S, Fahey G C, Merchen N R, and Reinhart G A (1995), In vitro fermentation of selected fiber sources by dogs fecal inoculum and in vivo digestion and metabolism of fiber supplemental diets. J. Animal Sci. 73:1099-1109 (1995). Fermentations were carried out at 39° C. Experiments were conducted in a blind-coded manner with different fibers. […] An aliquot of this was prepared for FISH. […] Genus specific 16SrRNA-targeted probes were synthesized and monolabelled at the 5″ end with fluorescent dye to detect bacteria of interest in the fermentation media. Total nucleic acid was stained to obtain total microbial counts.

Substance | Numbers of Desulfovibrio spp., Log10 CFU AT 0 HOUR | Numbers of Desulfovibrio spp., LOG10 CFU AT 8 HOUR
Fructooligosaccharide | 6.9 ± 1.0 log cfu/ml of fecal inoculum | 6.3 ± 0.8 log cfu/ml of fecal inoculum
Inulin | 7.3 ± 0.2 log cfu/ml of fecal inoculum | 6.4 ± 1.0 log cfu/ml of fecal inoculum
Xylooligosaccharide | 7.2 ± 0.4 log cfu/ml of fecal inoculum | 6.8 ± 0.9 log cfu/ml of fecal inoculum
Galacto-oligosaccharide | 7.0 ± 1.0 log cfu/ml of fecal inoculum | 6.8 ± 0.9 log cfu/ml of fecal inoculum
Arabinogalactan | 7.5 ± 0.3 log cfu/ml of fecal inoculum | 6.4 ± 1.0 log cfu/ml of fecal inoculum
